Assay results from PubChem BioAssay (NCI).
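Abbreviation: GI50, concentration required for 50% inhibition of growth. TGI: concentration producing complete growth inhibition.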

Legend:
Test in all cases: growth of human tumour cells (NCI), 384-well format; in the data active = GI50 below about 0.43 µM; inactive = the rest
A498 renal = system: A498 renal
NCI-H322M lung = system: NCI-H322M lung
HCT-116 colon = system: HCT-116 colon
T-47D breast = system: T-47D breast
MDA-MB-231 breast = system: MDA-MB-231 breast
HL-60(TB) leukemia = system: HL-60(TB) leukemia
RPMI-8226 leukemia = system: RPMI-8226 leukemia
OVCAR-3 ovarian = system: OVCAR-3 ovarian
786-0 renal = system: 786-0 renal
UO-31 renal = system: UO-31 renal
EKVX NSCLC = system: EKVX NSCLC
HCC-2998 colon = system: HCC-2998 colon
SNB-19 CNS = system: SNB-19 CNS
HOP-92 NSCLC = system: HOP-92 NSCLC
K-562 leukemia = system: K-562 leukemia
MDA-MB-435 melanoma = system: MDA-MB-435 melanoma
NCI-H226 lung = system: NCI-H226 lung
OVCAR-8 ovarian = system: OVCAR-8 ovarian
HS 578T breast = system: HS 578T breast
OVCAR-5 ovarian = system: OVCAR-5 ovarian
U251 glioblastoma = system: U251 glioblastoma
SW-620 colon = system: SW-620 colon
SK-MEL-5 melanoma = system: SK-MEL-5 melanoma
MOLT-4 leukemia = system: MOLT-4 leukemia
NCI-H522 lung = system: NCI-H522 lung
NCI-H23 lung = system: NCI-H23 lung
CAKI-1 renal = system: CAKI-1 renal
MDA-MB-468 breast = system: MDA-MB-468 breast
TK-10 renal = system: TK-10 renal
SF-268 CNS = system: SF-268 CNS
SK-MEL-28 melanoma = system: SK-MEL-28 melanoma
OVCAR-4 ovarian = system: OVCAR-4 ovarian
KM12 colon = system: KM12 colon
NCI-H460 NSCLC = system: NCI-H460 NSCLC
SK-MEL-2 melanoma = system: SK-MEL-2 melanoma
COLO 205 colon = system: COLO 205 colon
SK-OV-3 ovarian = system: SK-OV-3 ovarian
HOP-62 NSCLC = system: HOP-62 NSCLC
PC-3 prostate = system: PC-3 prostate
HT29 colon = system: HT29 colon
MCF7 breast = system: MCF7 breast
SF-539 CNS = system: SF-539 CNS
A549 NSCLC = system: A549 NSCLC
MALME-3M melanoma = system: MALME-3M melanoma
SF-295 CNS = system: SF-295 CNS
NCI/ADR-RES ovarian = system: NCI/ADR-RES ovarian
LOX IMVI melanoma = system: LOX IMVI melanoma
DU-145 prostate = system: DU-145 prostate
BT-549 breast = system: BT-549 breast
M14 melanoma = system: M14 melanoma
RXF 393 renal = system: RXF 393 renal
CCRF-CEM leukemia = system: CCRF-CEM leukemia
SNB-75 CNS = system: SNB-75 CNS
HCT-15 colon = system: HCT-15 colon
IGROV1 ovarian = system: IGROV1 ovarian

COC[C@H]1Cn2cc(-c3nc(Nc4ccnn4C)ncc3C)nc2C(=O)N1Cc1ccc(F)c(F)c1
2.11 µM: TGI (NCI-H23 lung)
58.6 µM: TGI (SW-620 colon)
> 100 µM: TGI (A498 renal) | TGI (NCI-H322M lung) | TGI (T-47D breast) | TGI (MDA-MB-231 breast) | TGI (OVCAR-3 ovarian) | TGI (786-0 renal) | TGI (UO-31 renal) | TGI (EKVX NSCLC) | TGI (SNB-19 CNS) | TGI (K-562 leukemia) | TGI (MDA-MB-435 melanoma) | TGI (NCI-H226 lung) | TGI (OVCAR-8 ovarian) | TGI (HS 578T breast) | TGI (OVCAR-5 ovarian) | TGI (U251 glioblastoma) | TGI (NCI-H522 lung) | TGI (CAKI-1 renal) | TGI (SF-268 CNS) | TGI (OVCAR-4 ovarian) | TGI (KM12 colon) | TGI (NCI-H460 NSCLC) | TGI (SK-OV-3 ovarian) | TGI (HOP-62 NSCLC) | TGI (PC-3 prostate) | TGI (HT29 colon) | TGI (MCF7 breast) | TGI (SF-539 CNS) | TGI (A549 NSCLC) | TGI (SF-295 CNS) | TGI (NCI/ADR-RES ovarian) | TGI (DU-145 prostate) | TGI (BT-549 breast) | TGI (RXF 393 renal) | TGI (SNB-75 CNS) | TGI (HCT-15 colon) | TGI (IGROV1 ovarian)
0.0237 µM: TGI (MALME-3M melanoma)
inactive: GI50 (A498 renal) 1.3 µM | GI50 (T-47D breast) 53.4 µM | GI50 (RPMI-8226 leukemia) 0.771 µM | GI50 (OVCAR-3 ovarian) 43.5 µM | GI50 ([…]-0 renal) 24.6 µM | GI50 (UO-31 renal) 2.73 µM | GI50 (EKVX NSCLC) 11 µM | GI50 (SNB-19 CNS) 53.2 µM | GI50 (K-562 leukemia) 1.03 µM | GI50 (NCI-H226 lung) 0.612 µM | GI50 (OVCAR-8 ovarian) 71.6 µM | GI50 (HS 578T breast) 15.8 µM | GI50 (U251 glioblastoma) 2.25 µM | GI50 (MOLT-4 leukemia) 16.9 µM | GI50 (NCI-H522 lung) 1.09 µM | GI50 (CAKI-1 renal) 0.509 µM | GI50 (MDA-MB-468 breast) 14.2 µM | GI50 (TK-10 renal) 0.79 µM | GI50 (SF-268 CNS) 95.9 µM | GI50 (OVCAR-4 ovarian) 61.9 µM | GI50 (NCI-H460 NSCLC) 2.03 µM | GI50 (SK-OV-3 ovarian) 18.2 µM | GI50 (HOP-62 NSCLC) 2.02 µM | GI50 (PC-3 prostate) 38.4 µM | GI50 (MCF7 breast) 19.6 µM | GI50 (SF-539 CNS) 18.4 µM | GI50 (SF-295 CNS) > 100 µM | GI50 (NCI/ADR-RES ovarian) 93.6 µM | GI50 (DU-145 prostate) 10.4 µM | GI50 (BT-549 breast) 18.6 µM | GI50 (RXF 393 renal) 23.6 µM | GI50 (CCRF-CEM leukemia) 17.6 µM | GI50 (SNB-75 CNS) 24.3 µM | GI50 (HCT-15 colon) 24.8 µM
active: GI50 (NCI-H322M lung) 0.145 µM | GI50 (HCT-116 colon) 0.0577 µM | GI50 (MDA-MB-231 breast) 0.266 µM | GI50 (HL-60(TB) leukemia) 0.0154 µM | GI50 (HCC-2998 colon) 0.0316 µM | GI50 (HOP-92 NSCLC) 0.389 µM | GI50 (MDA-MB-435 melanoma) 0.0355 µM | GI50 (OVCAR-5 ovarian) 0.217 µM | GI50 (SW-620 colon) 0.0875 µM | GI50 (SK-MEL-5 melanoma) 0.064 µM | GI50 (NCI-H23 lung) 0.0369 µM | GI50 (SK-MEL-28 melanoma) < 0.01 µM | GI50 (KM12 colon) 0.255 µM | GI50 (SK-MEL-2 melanoma) 0.0366 µM | GI50 (COLO 205 colon) < 0.01 µM | GI50 (HT29 colon) 0.0947 µM | GI50 (A549 NSCLC) 0.373 µM | GI50 (MALME-3M melanoma) < 0.01 µM | GI50 (LOX IMVI melanoma) 0.0393 µM | GI50 (M14 melanoma) 0.0106 µM | GI50 (IGROV1 ovarian) 0.314 µM
0.181 µM: TGI (M14 melanoma)
0.36 µM: TGI (COLO 205 colon)
35.7 µM: TGI (SK-MEL-5 melanoma)
32.3 µM: TGI (HCT-116 colon)
46.5 µM: TGI (MOLT-4 leukemia)
52.2 µM: TGI (MDA-MB-468 breast)
2.6 µM: TGI (RPMI-8226 leukemia)
0.108 µM: TGI (SK-MEL-28 melanoma)
1.55 µM: TGI (HL-60(TB) leukemia)
76.7 µM: TGI (TK-10 renal)
11.6 µM: TGI (HOP-92 NSCLC)
0.196 µM: TGI (SK-MEL-2 melanoma)
0.31 µM: TGI (LOX IMVI melanoma)
0.219 µM: TGI (HCC-2998 colon)
37.9 µM: TGI (CCRF-CEM leukemia)
